Assay results: article PMC9794833, “Ligand recognition and activation of neuromedin U receptor 2” (Nature Communications, 2022)
Where “and” joins values, the source holds several entries; their conditions need not be identical. Equal values may be shown once. Read-outs that look alike come from different tables or passages of the source. Where no end group is shown, it is not given here.

Columns and labels:
Format in all cases: cell-based
[1] = molecular target: T1, NMU2 (Homo sapiens, UniProt Q9GZQ4); test: IP accumulation assay (IP-One Gq kit), WT NMU2; conditions: IP accumulation
T1 construct: HA signal peptide (N); expressed in transfected cells; host or cells: HEK 293F
T1 sequence (Q9GZQ4 whole entry): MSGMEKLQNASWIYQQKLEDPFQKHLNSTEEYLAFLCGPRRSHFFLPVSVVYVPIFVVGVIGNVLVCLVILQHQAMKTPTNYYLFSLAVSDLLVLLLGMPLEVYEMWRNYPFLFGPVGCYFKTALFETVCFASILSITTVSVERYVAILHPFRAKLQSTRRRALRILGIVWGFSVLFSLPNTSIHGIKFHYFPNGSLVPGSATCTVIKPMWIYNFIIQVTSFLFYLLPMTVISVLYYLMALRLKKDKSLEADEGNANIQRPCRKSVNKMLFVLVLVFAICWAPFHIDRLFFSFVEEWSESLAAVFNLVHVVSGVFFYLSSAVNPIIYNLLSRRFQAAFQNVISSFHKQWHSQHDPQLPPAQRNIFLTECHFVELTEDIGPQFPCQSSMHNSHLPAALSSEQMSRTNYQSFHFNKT
Method: (§1) NMU2 constructs of WT and mutants were constructed into PTT5 vector (Invitrogen), as mentioned above. HEK 293F cells were transiently transfected with WT or mutants with total of 2000 ng plasmid DNA using transfection reagent (PEI MAX 2000, Polysciences) and cultivated at 37 °C with 5% CO2. Cells were collected after 48-h transfection. IP accumulation was tested by IP-One Gq assay kit (Cisbio Bioassays, 62IPAPEJ) following the instruction manual. In general, cells were resuspended with 1× HBSS buffer containing 20 mM LiCl (stimulation buffer) and seeded into the white 384-well microplates (Proxi Plate^TM-384 Plus, PerkinElmer) with a density of 20,000 per well. Cells were preincubated with 10^−5 M R-PSOP (provided by Boehringer Ingelheim company, Germany) and gradient concentration from 10^−4 to 10^−11 M of NMU-25 or gradient concentration 10^−4 to 10^−11 M of NMU-25 alone in stimulation buffer at 37 °C for 90 min. The cryptate-labeled anti-IP1 monoclonal antibody and d2-labeled IP1 were diluted with lysis & detection buffer (1:20) and added to each well by 3 μl, respectively. The plates were incubated at room temperature for 60 minutes and then read in a Synerg^TM H1 microplate reader (BioTek) with excitation at 330 nm and emission at 620 and 665 nm. The IP1 production was calculated by a standard dose–response curve and analyzed by GraphPad Prism 8.0.

[2] = molecular target: T2, NMU2 E105A (Homo sapiens, UniProt Q9GZQ4, E105A); test: TRUPATH assay, NMU2 mutant E105A
T2 construct: HA signal peptide (N); expressed in transfected cells; host or cells: HEK 293F
T2 sequence (Q9GZQ4 whole entry E105A): as the sequence (Q9GZQ4 whole entry) above, with E105A counted along it
Method: (§2) The plasmids of Gαi1, Gβ3, and Gγ9 used for the TRUPATH assay were purchased from Addgene (TRUPATH Kit, #1000000163). NMU2 constructs of WT and mutants were constructed into a PTT5 vector (Invitrogen) with an N-terminal HA signal peptide followed by a Flag tag. HEK 293F cells were transiently transfected with WT or mutants of NMU2, Gαi1, Gβ3, and Gγ9 at an […] ratio of 4:1:1:1 with a total of 3500 ng plasmid DNA using a transfection reagent (PEI MAX 2000, Polysciences) and cultivated at 37 °C with 5 % CO2. Cells were collected after 48-h transfection. The expression level of the receptor was measured by incubating 10 μl cells with 15 μl TBS buffer supplemented with 4% bovine serum albumin, 20% (v/v) viability staining solution7-AAD (Invitrogen, Cat#00-6993-50), and ANTI-FLAG M2-FITC antibody (Sigma, F4049; 1:100 diluted by TBS) at 4 °C for 20 min. After incubation, 175 μl TBS buffer was added, and the fluorescence signal on the cell surface was detected by an FCM (flow cytometry) reader (Millipore). The cells were diluted with 1× HBSS (Hank’s balanced salt solution) balanced buffer supplemented with 25 mM HEPES, pH 7.4, and seeded onto the 96-well opaque cell culture plates (Beyotime) at a density of 18,000 cells per well by 60 μl. Freshly prepared 50 μM coelenterazine 400a (Nanolight Technologies) was added into the well by 10 μl. After a 5 min equilibration time in the darkness, plates were then read in a Synerg^TM H1 microplate reader (BioTek) with excitation at 395 nm and emission at 410 and 515 nm by serially three times. Then, 30 μl of 3.3× agonists were added into the wells with a gradient final concentration from 10^−4–10^−13 M. Plates were read immediately again by serially five times. Data were processed and analyzed following the method in the literature by using GraphPad Prism 8.0.

[3] = molecular target: T3, NMU2 F177C (Homo sapiens, UniProt Q9GZQ4, F177C); test: IP accumulation assay, NMU2 mutant F177C; conditions: IP accumulation
T3 construct: HA signal peptide (N); expressed in transfected cells; host or cells: HEK 293F, transient transfection, PTT5 vector
T3 sequence (Q9GZQ4 whole entry F177C): as the sequence (Q9GZQ4 whole entry) above, with F177C counted along it
Method: as §1

[4] = molecular target: T4, NMU2 R288A (Homo sapiens, UniProt Q9GZQ4, R288A); test: IP accumulation assay, NMU2 mutant R288A
T4 construct: HA signal peptide (N); expressed in transfected cells; host or cells: HEK 293F
T4 sequence (Q9GZQ4 whole entry R288A): as the sequence (Q9GZQ4 whole entry) above, with R288A counted along it
Method: as §1

[5] = molecular target: T5, NMU2 F316A (Homo sapiens, UniProt Q9GZQ4, F316A); test: TRUPATH assay, NMU2 mutant F316A
T5 construct: HA signal peptide (N); expressed in transfected cells; host or cells: HEK 293F
T5 sequence (Q9GZQ4 whole entry F316A): as the sequence (Q9GZQ4 whole entry) above, with F316A counted along it
Method: as §2

[6] = molecular target: T6, NMU2 F224A (Homo sapiens, UniProt Q9GZQ4, F224A); test: IP accumulation assay, NMU2 mutant F224A; conditions: IP accumulation
T6 construct: HA signal peptide (N); expressed in transfected cells; host or cells: HEK 293F, transient transfection, PTT5 vector
T6 sequence (Q9GZQ4 whole entry F224A): as the sequence (Q9GZQ4 whole entry) above, with F224A counted along it
Method: as §1

[7] = molecular target: T7, NMU2 N109A (Homo sapiens, UniProt Q9GZQ4, N109A); test: TRUPATH assay, NMU2 mutant N109A
T7 construct: HA signal peptide (N); expressed in transfected cells; host or cells: HEK 293F
T7 sequence (Q9GZQ4 whole entry N109A): as the sequence (Q9GZQ4 whole entry) above, with N109A counted along it
Method: as §2

[8] = molecular target: T8, NMU2 A302H (Homo sapiens, UniProt Q9GZQ4, A302H); test: TRUPATH assay, NMU2 mutant A302H
T8 construct: HA signal peptide (N); expressed in transfected cells; host or cells: HEK 293F
T8 sequence (Q9GZQ4 whole entry A302H): as the sequence (Q9GZQ4 whole entry) above, with A302H counted along it
Method: as §2

[9] = molecular target: T9, NMU2 E127A (Homo sapiens, UniProt Q9GZQ4, E127A); test: TRUPATH assay, NMU2 mutant E127A
T9 construct: HA signal peptide (N); expressed in transfected cells; host or cells: HEK 293F
T9 sequence (Q9GZQ4 whole entry E127A): as the sequence (Q9GZQ4 whole entry) above, with E127A counted along it
Method: as §2, with “The cells were diluted with 1× HBSS (Hank’s balanced salt solution) balanced buffer supplemented with 25 mM HEPES, pH 7.4, and seeded onto the 96-well opaque cell culture plates (Beyotime) at a density of 18,000 cells per well by 60 μl. Freshly prepared 50 μM coelenterazine 400a (Nanolight Technologies) was added into the well by 10 μl.” left out, “Data were processed and analyzed following the method in the literature by using GraphPad Prism 8.0.” left out

[10] = molecular target: T10, NMU2 H285A (Homo sapiens, UniProt Q9GZQ4, H285A); test: IP accumulation assay, NMU2 mutant H285A; conditions: IP accumulation
T10 construct: HA signal peptide (N); expressed in transfected cells; host or cells: HEK 293F, transient transfection, PTT5 vector
T10 sequence (Q9GZQ4 whole entry H285A): as the sequence (Q9GZQ4 whole entry) above, with H285A counted along it
Method: as §1

[11] = molecular target: T1, NMU2; test: TRUPATH Gαi1βγ biosensor assay, WT NMU2; conditions: for NmU-25–induced G protein activation of NMU2: single replicates, in % (unit assumed)
Method: as §2

[12] = read-out: pEC50±SEM, NmU-25 alone (converted)
[13] = read-out: pEC50 mean±SEM (converted)

FRVDEEFQSPFASQSRGYFLFRPRN-NH2 [NmU-25]
EC50 ([1]; read-out: EC50, NmU-25 alone): 17 nM | EC50 [1, 12]: 16.6 nM | Span (window between Emax and minimal agonist response) ([2]; E105A): 65±13 % of WT | Emax ([2]; E105A vs WT, TRUPATH, read-out: decrease of Emax): 50% | G protein activation (TRUPATH), dose-response point ([2]; E105A, Log [agonist] M -5): 55.6494 and 84.0025 and 53.5618 and 51.5031 | EC50 ([2]; E105A, earlier manuscript version quoted in peer review file, read-out: EC50): 1850 nM | reduction of agonist potency ([2]; E105A, earlier manuscript version, peer review file): about 50 fold | ΔpEC50 (from WT) ([2]; E105A, individual experiments): -1.22 and -1.57 and -1.279 and -1.924 | EC50 ([2]; E105A, read-out: EC50): 2480 nM | EC50 ([2]; E105A, read-out: pEC50 mean±SEM (converted)): 2510 nM | EC50 ([3]; read-out: EC50, NmU-25 alone): 7 nM | EC50 [3, 12]: 7.08 nM | NmU-25-induced IP accumulation (in words) [4]: totally eliminated | EC50 ratio EC50(mutant)/EC50(WT) [5]: 39 | G protein activation (TRUPATH), dose-response point ([5]; Log [agonist] M -4): 89.6236 and 94.3509 and 81.0469 and 109.176 | G protein activation (TRUPATH), dose-response point ([5]; Log [agonist] M -5): 58.7715 and 110.343 and 86.8329 and 108.262 | ΔpEC50 (from WT) ([5]; individual experiments): -1.816 and -2.03 and -0.9173 and -1.079 | EC50 ([5]; read-out: EC50): 1340 nM | EC50 [5, 13]: 1350 nM | EC50 ([6]; read-out: EC50, NmU-25 alone): 46 nM | EC50 [6, 12]: 45.7 nM | EC50 ratio EC50(mutant)/EC50(WT) [7]: 9 | Span (window between Emax and minimal agonist response) [7]: 138±11 % of WT | G protein activation (TRUPATH), dose-response point ([7]; Log [agonist] M -4): 126.259 | G protein activation (TRUPATH), dose-response point ([7]; Log [agonist] M -5): 106.487 and 123.773 and 113.723 | G protein activation (TRUPATH), dose-response point ([7]; Log [agonist] M -6): 98.1363 and 71.1117 and 54.8765 | ΔpEC50 (from WT) ([7]; individual experiments): -1.459 and -0.6318 and -0.9885 | EC50 ([7]; read-out: EC50): 298 nM | EC50 [7, 13]: 295 nM | EC50 ratio EC50(mutant)/EC50(WT) [8]: 5 | Span (window between Emax and minimal agonist response) [8]: 97±11 % of WT | G protein activation (TRUPATH), dose-response point ([8]; Log [agonist] M -4): 97.2233 and 94.5294 | G protein activation (TRUPATH), dose-response point ([8]; Log [agonist] M -6): 58.8982 and 69.5076 and 54.0633 | ΔpEC50 (from WT) ([8]; individual experiments): -0.7587 and -0.754 and -0.956 | EC50 ([8]; read-out: EC50): 162 nM | EC50 [8, 13]: 162 nM | G protein activation (TRUPATH), dose-response point ([9]; Log [agonist] M -4): 45.81 and 24.8732 | potency (in words) ([9]; TRUPATH): complete loss of potency | EC50 ([10]; read-out: EC50, NmU-25 alone): 214 nM | EC50 [10, 12]: 214 nM | potency on Gi1, Gq and G11 signaling pathways (in words) ([11]; TRUPATH, peer review file): highest potency by coupling Gi1 | EC50 ratio EC50(mutant)/EC50(WT) ([11]; WT): 1 | Span (window between Emax and minimal agonist response) ([11]; WT): 100±5 % of WT | NmU-25–induced G protein activation of NMU2 ([11]; WT, Log [NmU-25] M -4): 96.1513 and 120.034 and 131.645 and 132.135 and 112.945 and 100.303 and 111.674 and 103.511 | NmU-25–induced G protein activation of NMU2 ([11]; WT, Log [NmU-25] M -5): 94.5176 and 100.381 and 95.0326 | NmU-25–induced G protein activation of NMU2 ([11]; WT, Log [NmU-25] M -8): 14.7563 and 14.6245 and 25.1777 and 27.4903 and 32.4994 and 60.5946 and 16.3263 and -20.6053 and 85.0469 and -9.5497 and 77.5389 and 54.5579 and 12.0114 | NmU-25–induced G protein activation of NMU2 ([11]; WT, Log [NmU-25] M -9): 14.8034 and 2.989 and 12.9021 and 10.3696 and 7.38 and -3.464 and 27.6247 and 0.6791 and -7.166 and 14.4877 and 22.3774 and 22.0623 and -4.444 | NmU-25–induced G protein activation of NMU2 ([11]; WT, Log [NmU-25] M -10): -1.975 and -9.668 and -7.55 and 11.1071 and -8.093 and -25.3752 and 0.6481 and -23.592 and -13.8096 and 16.7093 and 3.342 and 8.321 and 30.8279 | NmU-25–induced G protein activation of NMU2 ([11]; WT, Log [NmU-25] M -11): -12.488 and 4.703 and -8.667 and -24.4881 and 6.542 and 34.4845 and -19.0587 and 46.905 and 31.0606 and -18.1089 and -17.8891 and -27.6836 | EC50 ([11]; WT, agonist-induced G protein activation, HEK 293F, read-out: EC50): 34 nM | EC50 ([11]; WT, earlier manuscript version quoted in peer review file, read-out: EC50): 37 nM | EC50 ([11]; WT, read-out: pEC50 mean±SEM (converted)): 34.7 nM
